Test results taken from patent publication US5393777A, “Deferration using anguibactin siderophore” (State of Oregon Acting by and through the State Board of …, priority 1990, dated 1995).
Entries after “also recorded” stand apart in the source; their conditions may differ. Read-outs that look alike come from different tables or passages of the source.

Experiments:
[1] = theoretical; cited from earlier work
[2] = deferoxamine; cited from earlier work
[3] = cited from earlier work
hemosiderin = details: cited from earlier work
[4] = deferoxamine; cited from earlier work; remark: listed apart in the source
transferrin [5] = details: deferoxamine; cited from earlier work
hemoglobin = details: cited from earlier work
[6] = human, in vivo; cited from earlier work
[7] = in vivo; cited from earlier work
ferritin = details: cited from earlier work
[8] = cited from earlier work; remark: listed apart in the source
cytochromes = details: cited from earlier work
Yersinia enterocolitica = details: in some cases; cited from earlier work
Vibrio anguillarum = assay: experimental infection of salmonid fishes, iron supply by siderophore for growth of avirulent strain; assay type: in vivo; details: fish infected with wild-type V. anguillarum
Source text: A mutant strain of Vibrio anguillarum termed 775:Tn1-5 was produced which contained the pJM1-derivative plasmid pJHC-91 in which a transposon element Tn1 was inserted into genetic unit I. This mutant strain can grow in vitro in iron-limited media only if the supernatant from strains containing the wild-type pJM1 plasmid, and thus plenty of anguibactin, is supplied. Therefore, strains harboring the pJHC-91 plasmid must be able to transport and incorporate iron from anguibactin but are not able to produce this anguibactin itself. Strains containing the pJHC-91 plasmid are able to synthesize the pOM2 outer membrane protein.

[9] = system: human diploid fibroblast cells; assay: inhibition of 59Fe uptake by normal human diploid fibroblast cells (FIG. 3); assay type: cell-based; details: 59Fe-containing cell-growth medium
Experimental: An experiment was conducted to characterize the chelation properties of anguibactin by examining its effect on iron uptake by mammalian cells in culture.
Normal human diploid fibroblast cells were mixed with ^59 Fe-containingcell-growth medium. Samples of the dosed cells were then incubated for increasing lengths of time. After each time period, the corresponding samples were rinsed to remove any free radioiron. The rinsed cells were treated with trypsin and the lysates precipitated with trichloroacetic acid. Radioactive counting of the precipitated lysates was performed using a Beckman counter. Addition of anguibactin and subsequent assay for radioiron in otherwise identical parallel samples yielded a measure of the capacity of the siderophore present in the cell-growth medium to interrupt the uptake of radioiron by the cultured cells.

[10] = excretion of radioiron (59Fe) in urine and feces; assay type: in vivo, rats; details: about 10 mg incubated with 59FeCl3, subcutaneous, urine and feces over a week
Experimental: To determine the ability to excrete chelated iron, a procedure similar to that generally used to evaluate iron chelators is employed. Trace amounts of ^59 FeCl3 are incubated in vitro with about 10 mg anguibactin and subcutaneously injected into normal subjects such as rats. Cumulative excretion of radioiron is measured during the subsequent week in urine and feces. Weak iron chelators are not able enhance ^59 Fe excretion relative to a control injected with ^59 FeCl3 only. […] Evaluation of the distribution of radioiron in urine and stool provides an indication of whether the siderophore-bound iron is removed from plasma by kidneys (urine) or by the liver followed by excretion to the bile (stool).

ferrous (Fe2+) affinity = assay type: binding
[11] = stability to acid hydrolysis; assay type: physicochemical
Ga(III) binding = details: anguibactin
Experimental: The structure of anguibactin was determined as outlined in Jalal et al., J. Am. Chem. Soc. 111:292 (1989), and shown schematically in FIG. 2. Anguibactin has a molecular weight of 348 g/mol, which is about half the molecular weight of deferoxamine (657 g/mol). Anguibactin can be regarded as a form of catechol rather than a monophenol. It has a unique structure which bears some resemblance to pyochelin. See Llinas et al., Biochemistry 12:3836 (1973). Anguibactin has been identified as ω-N-hydroxy-ω-[[2'-(2'',3''-dihydroxyphenyl)thiazolin-4'-yl]-carboxy]histamine by crystal X-ray diffraction studies of its anhydro derivative, proton and ^13 C nuclear magnetic resonance spectroscopy of its deferri and Ga(III) complex, fast-atom bombardment (FAB) mass spectrometry, and chemical degradation.

[12] = ferric iron (Fe3+) binding / affinity / formation constant
Source text: Each molecule of anguibactin chelates one ferric (Fe^3+ or Fe(III)) ion. Anguibactin also binds Ga(III).

toxicity, general = details: preliminary studies
[13] = toxicity on injection into rabbits; assay type: in vivo, rabbit; details: injection of 400 μl
Source text: (§1) Preliminary studies indicate that anguibactin toxicity is very low.

[14] = competitive binding assay, removal of Fe3+ from aerobactin; details: competitive binding assays
transferrin [15] = assay: removal of Fe3+ from transferrin; details: anguibactin; competitive binding assays
calcium (Ca2+) affinity = assay type: binding; details: anguibactin
[16] = removal of ferric iron from aqueous solutions
rat heart cells = assay: inhibition of iron uptake by rat heart cells; assay type: cell-based; details: non-immortalized cells, data not shown
[17] = system: iron-binding proteins in the fish host; assay: removal of iron from iron-binding proteins in the fish host; details: in vivo
[18] = toxicity on injection into fish; assay type: in vivo; details: injection of 400 μl anguibactin
Source text: as §1

[19] = removal of ferric ion from ferric hydroxide; assay type: binding; details: aqueous, pH between 7 and 8
[20] = as known in the art; cited from earlier work

CC(=O)N(O)CCCCCNC(=O)CCC(=O)N(O)CCCCCNC(=O)CCC(=O)N(O)CCCCCN [deferoxamine]
capacity of binding ferric iron [1]: about 8.5 parts by weight
acid hydrolysis [2]: prone to acid hydrolysis
Intravenous LD50, rats [3]: 329 mg/kg
removal of iron from hemosiderin (hemosiderin): wrests iron from ferritin and hemosiderin
excretion of radioiron [4]: enhance excretion of radioiron
removal of iron from transferrin (transferrin [5]): not readily from transferrin
removal of iron from hemoglobin (hemoglobin): substantially not at all from cytochromes and hemoglobin
toxic reactions [6]: toxic and can cause a number of reactions, including allergic reactions: pruritis, wheals, rash, and anaphylaxis; and dysuria, gastrointestinal symptoms, diarrhea, fever, leg cramps, hypotension, and tachycardia
absorption after oral administration [7]: poorly absorbed after oral administration
removal of iron from ferritin (ferritin): wrests iron from ferritin
Intravenous LD50, mice [8]: 287 mg/kg
removal of iron from cytochromes (cytochromes): substantially not at all from cytochromes
effect on susceptibility of iron-overload patients to Yersinia enterocolitica infections (Yersinia enterocolitica): enhanced this susceptibility, resulting in generalized infections

O=C(C1CSC(c2cccc(O)c2O)=N1)N(O)CCc1c[nH]cn1 (centres unmarked) [anguibactin, ω-N-hydroxy-ω-[[2'-(2'',3''-dihydroxyphenyl)thiazolin-4'-yl]-carboxy]histamine]
level of siderophore in blood and kidneys of infected fish (Vibrio anguillarum): sufficient to provide iron for considerable growth of the avirulent strain
inhibition of iron uptake by human fibroblast cells [9]: inhibits uptake, from a liquid medium, of iron by cultured human diploid fibroblast cells; also recorded: interrupts the flow of iron into human cells
inhibition of iron uptake by human fibroblast cells ([9]; listed as Anguibactin): inhibits iron uptake by living cells
excretion of radioiron [10]: enhance excretion of radioiron
affinity for ferrous (Fe2+) ions (ferrous (Fe2+) affinity): only a very weak affinity; also recorded: little affinity
cleavage by hydrochloric acid ([11]; 6N hydrochloric acid): cleave anguibactin to 2,3-dihydroxybenzoic acid, dehydrocystine, and histamine
acid hydrolysis below pH 3 ([11]; environment more acidic than pH 3): undergoes acid hydrolysis to at least a partial degree
pH down to which the molecule remains intact ([11]; pH): ≥ 3
binding of Ga(III) (Ga(III) binding): binds Ga(III)
affinity for ferric ions [12]: extremely high
dependence of Fe3+ binding on pH [12]: dependent on pH
ferric (Fe3+) ions chelated per molecule [12]: one
iron chelating power compared with deferoxamine ([12]; from competitive binding data): more powerful iron chelator than the widely used deferoxamine
Fe3+ binding in mildly alkaline conditions ([12]; mildly alkaline conditions): excellent binding can be achieved
toxicity (toxicity, general): very low
toxicity (toxicity, general; listed as Anguibactin): very low toxicity
adverse effect, rabbits [13]: no discernable adverse effect
solubility in methanol (solubility; methanol): freely soluble in water and methanol
solubility in water (solubility): highly soluble in water
solubility in water (solubility; listed as Anguibactin): freely soluble in water
removal of Fe3+ from other siderophores such as aerobactin [14]: able to remove Fe^3+ from other siderophores such as aerobactin
removal of Fe3+ from transferrin (transferrin [15]): able to remove Fe^3+
binding of metals other than iron known to be essential for bacterial metabolism (binding of other metals): does not bind any metal other than iron known to be essential for bacterial metabolism
affinity for Ca2+ ions (calcium (Ca2+) affinity): only a very weak affinity
removal of iron from aqueous solution [16]: capable of removing ferric iron from aqueous solutions, including cell-culture medium; also recorded: very efficient in removing iron from aqueous solution
inhibition of iron uptake by rat heart cells (rat heart cells): substantially the same results
inhibition of iron uptake by rat heart cells (rat heart cells; listed as Anguibactin): inhibits iron uptake by living cells
removal of iron from transferrin and other iron-binding proteins in the fish host [17]: very efficient in removing iron from aqueous solution as well as from transferrin and from other iron-binding proteins in the fish host
adverse effect, fish [18]: no discernable adverse effect
removal of ferric ion from ferric hydroxide [19]: remove ferric ion from ferric hydroxide

O=C(O)CN(CCN(CC(=O)O)CC(=O)O)CC(=O)O [EDTA]
toxicity of calcium chelators [20]: relatively toxic
